Tested on: Cy5-labeled 16 bp WC-helix (RNA, duplex) AGAGGGAAUUCCCUCU
Assay: microscale thermophoresis
Conditions: 100 mM K+, 2 mM Mg2+; 10 mM HEPES pH 7.5, 0.5 mM EDTA, 0.1% Tween 20, 25 °C; 50 nM RNA; single-site fit

KD: < 100 pM
SMILES: C[C@@H]1O[C@@H](OC[C@H]2O[C@@H](Oc3c(-c4ccc(O)c(O)c4)oc4cc(O)cc(O)c4c3=O)[C@H](O)[C@@H](O)[C@@H]2O)[C@H](O)[C@H](O)[C@H]1O
